Our source for the IC50 values is patent US8273890B2 (4SC AG, priority 2007, dated 2012).

pIC50: −log10 of the molar value. Some results are limits rather than exact numbers.

For the assay, the target named is T1, recombinant Plk1 protein (Homo sapiens, UniProt P53350).
T1 construct: histidine tag (N); made in house; host or cells: SF9 insect cells
T1 sequence (P53350 whole entry): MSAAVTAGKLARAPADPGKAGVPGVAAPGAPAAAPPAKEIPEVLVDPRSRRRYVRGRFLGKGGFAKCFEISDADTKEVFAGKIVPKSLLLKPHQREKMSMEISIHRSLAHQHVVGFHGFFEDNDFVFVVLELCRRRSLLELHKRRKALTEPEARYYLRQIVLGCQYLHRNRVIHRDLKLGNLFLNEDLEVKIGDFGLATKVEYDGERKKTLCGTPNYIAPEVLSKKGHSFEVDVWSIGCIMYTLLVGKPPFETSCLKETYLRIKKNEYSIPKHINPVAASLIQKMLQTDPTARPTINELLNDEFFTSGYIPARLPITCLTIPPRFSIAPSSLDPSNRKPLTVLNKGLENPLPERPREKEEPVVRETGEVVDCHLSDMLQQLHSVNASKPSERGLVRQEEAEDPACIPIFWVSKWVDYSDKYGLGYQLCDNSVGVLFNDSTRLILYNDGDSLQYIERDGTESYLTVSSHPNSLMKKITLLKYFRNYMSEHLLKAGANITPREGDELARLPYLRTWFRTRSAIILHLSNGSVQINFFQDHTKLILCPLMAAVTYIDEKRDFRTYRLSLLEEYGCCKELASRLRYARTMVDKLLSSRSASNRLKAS
Briefly: Plk1 kinase activity inhibition assay (33P-ATP, alpha casein substrate, flash plates). In kind it is biochemical. To be noted: enzymatic assay, 100 nM Li-ATP, 80 minutes at 30° C. A digest of the protocol: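 IC50 derived from radioactive flash-plate counts of 33P-labelled alpha casein after 80 min at 30 °C. Reaction: 100 nM 33P-containing ATP, 50–100 ng His-tagged Plk1 (SF9-expressed), 500 ng casein per well, HEPES pH 7.5 buffer with MgCl2/MnCl2.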
Usually pIC50 stands for the IC50 on a negative log10 scale, so that one unit is a factor of ten. Regarding `C[C@@H](Oc1cc(-n2cnc3cnc(CN4CCN(S(=O)(=O)N(C)C)CC4)cc32)sc1C(N)=O)c1ccccc1C(F)(F)F` [Example 71, 5-[6-({4-[(dimethylamino)sulfonyl]piperazin-1-yl}methyl)-1H-imidazo[4,5-c]pyridin-1-yl]-3-{(1R)-1-[2-(trifluoromethyl)phenyl]ethoxy}thiophene-2-carboxamide], the pIC50 was 7.00 to 8.00. The figure for `NC(=O)c1sc(-n2cnc3ncccc32)cc1OCc1ccccc1C(F)(F)F` [Example 20, 5-(1H-Imidazo[4,5-b]pyridin-1-yl)-3-{[2-(trifluoromethyl)benzyl]oxy}thio-phene-2-carboxamide] is 6.00 to 7.00; for `CC(Oc1cc(-n2cnc3cnc(CN4CCN(C(=O)N(C)C)CC4)cc32)sc1C(N)=O)c1ccccc1OC(F)F` (stereo not drawn) [Example 134, 4-{[1-(5-carbamoyl-4-{1-[2-(difluoromethoxy)phenyl]ethoxy}-2-thienyl)-1H-imidazo[4,5-c]pyridin-6-yl]methyl}-N,N-dimethylpiperazine-1-carboxamide] it is more than 8.00; for `C[C@@H](Oc1cc(-n2cnc3cnc(CN4CCN(c5ccncc5)CC4)cc32)sc1C(N)=O)c1ccccc1C(F)(F)F` [Example 75, 5-{6-[(4-pyridin-4-ylpiperazin-1-yl)methyl]-1H-imidazo[4,5-c]pyridin-1-yl}-3-{(1R)-1-[2-(trifluoromethyl)phenyl]ethoxy}thiophene-2-carboxamide] it is 7.00 to 8.00. The same measure for `NC(=O)c1sc(-n2cnc3ccncc32)cc1OCc1ccccc1F` [Example 31, 3-[(2-fluorobenzyl)oxy]-5-(3H-imidazo[4,5-c]pyridin-3-yl)thiophene-2-carboxamide]: 7.00 to 8.00; for `CCC(Oc1cc(-n2cnc3cnc(CO)cc32)sc1C(N)=O)c1ccccc1Cl` (stereo not drawn) [Example 56, 3-{[1-(2-chlorophenyl)propyl]oxy}-5-[6-(hydroxymethyl)-1H-imidazo[4,5-c]pyridin-1-yl]thiophene-2-carboxamide]: more than 8.00; for `NC(=O)c1sc(-n2cnc3cnccc32)cc1OCc1cccc(C(F)(F)F)c1` [Example 35, 5-(1H-imidazo[4,5-c]pyridin-1-yl)-3-{[3-(trifluoromethyl)benzyl]oxy}thiophene-2-carboxamide]: 7.00 to 8.00. The figure for `COCCNC(=O)c1cc2c(cn1)ncn2-c1cc(OCc2ccccc2C(F)(F)F)c(C(N)=O)s1` [Example 4, 1-(5-Carbamoyl-4-{[2-(trifluoromethyl)benzyl]oxy}-2-thienyl)-N-(2-methoxyethyl)-1H-imidazo[4,5-c]pyridine-6-carboxamide] is 6.00 to 7.00. Consider `C[C@@H](Oc1cc(-n2cnc3cnc(CN4CCN(CCN(C)C)CC4)cc32)sc1C(N)=O)c1ccccc1C(F)(F)F` [Example 70, 5-[6-({4-[2-(dimethylamino)ethyl]piperazin-1-yl}methyl)-1H-imidazo[4,5-c]pyridin-1-yl]-3-{(1R)-1-[2-(trifluoromethyl)phenyl]ethoxy}thiophene-2-carboxamide], for which the pIC50 is 7.00 to 8.00. The figure for `CC(Oc1cc(-n2cnc3cnccc32)sc1C(N)=O)c1ccccc1Cl` (stereo not drawn) [Example 15, 3-[1-(2-Chlorophenyl)ethoxy]-5-(1H-imidazo[4,5-c]pyridin-1-yl)thio-phene-2-carboxamide] is 7.00 to 8.00. Take `CCN1CCN(Cc2cc3c(cn2)ncn3-c2cc(OC(C)c3ccccc3OC(F)F)c(C(N)=O)s2)CC1` (stereo not drawn) [Example 135, 3-{1-[2-(difluoromethoxy)phenyl]ethoxy}-5-{6-[(4-ethylpiperazin-1-yl)methyl]-1H-imidazo[4,5-c]pyridin-1-yl}thiophene-2-carboxamide]: the negative logarithm of the IC50 (pIC50) is more than 8.00. The figure for `C[C@@H](Oc1cc(-n2cnc3cnc(CN4CCN(CCN5CCOCC5)CC4)cc32)sc1C(N)=O)c1ccccc1C(F)(F)F` [Example 80, 5-(6-{[4-(2-morpholin-4-ylethyl)piperazin-1-yl]methyl}-1H-imidazo[4,5-c]pyridin-1-yl)-3-{(1R)-1-[2-(trifluoromethyl)phenyl]ethoxy}thiophene-2-carboxamide] is 7.00 to 8.00; for `CC(Oc1cc(-n2cnc3cnc(CO)cc32)sc1C(N)=O)c1ccccc1F` (stereo not drawn) [Example 57] it is more than 8.00. As for `C[C@@H](Oc1cc(-n2cnc3cnc(CNCCN4CCN(C)CC4)cc32)sc1C(N)=O)c1ccccc1C(F)(F)F` [Example 88, 5-[6-({[2-(4-methylpiperazin-1-yl)ethyl]amino}methyl)-1H-imidazo[4,5-c]pyridin-1-yl]-3-{(1R)-1-[2-(trifluoromethyl)phenyl]ethoxy}thiophene-2-carboxamide], the pIC50 is 7.00 to 8.00. The same measure for `CCC(Oc1cc(-n2cnc3cnc(CN4CCN(C(=O)N(C)C)CC4)cc32)sc1C(N)=O)c1ccccc1Cl` (stereo not drawn) [Example 137, 4-{[1-(5-carbamoyl-4-{[1-(2-chlorophenyl)propyl]oxy}-2-thienyl)-1H-imidazo[4,5-c]pyridin-6-yl]methyl}-N,N-dimethylpiperazine-1-carboxamide]: 7.00 to 8.00; for `C[C@@H](Oc1cc(-n2cnc3cnc(CNC4CCN(C)CC4)cc32)sc1C(N)=O)c1ccccc1C(F)(F)F` [Example 73, 5-(6-{[(1-methylpiperidin-4-yl)amino]methyl}-1H-imidazo[4,5-c]pyridin-1-yl)-3-{(1R)-1-[2-(trifluoromethyl)phenyl]ethoxy}thiophene-2-carboxamide]: more than 8.00.

Take `Cc1ccccc1C(C)Oc1cc(-n2cnc3cnc(CN4CCN(C(C)C)CC4)cc32)sc1C(N)=O` (stereo not drawn) [Example 149, 5-{6-[(4-isopropylpiperazin-1-yl)methyl]-1H-imidazo[4,5-c]pyridin-1-yl}-3-[1-(2-methylphenyl)ethoxy]thiophene-2-carboxamide]: the pIC50 was 7.00 to 8.00.

Consider `C[C@@H](Oc1cc(-n2cnc3cnc(CN4CCN(C(=O)N(C)C)CC4)cc32)sc1C(N)=O)c1ccccc1C(F)(F)F` [Example 68, 4-{[1-(5-carbamoyl-4-{(1R)-1-[2-(trifluoromethyl)phenyl]ethoxy}-2-thienyl)-1H-imidazo[4,5-c]pyridin-6-yl]methyl}-N,N-dimethylpiperazine-1-carboxamide], for which the pIC50 is more than 8.00.

On to `C[C@@H](Oc1cc(-n2cnc3cnc(CO)cc32)sc1C(N)=O)c1ccccc1F` [Example 55, 3-[(1R)-1-(2-fluorophenyl)ethoxy]-5-[6-(hydroxymethyl)-1H-imidazo[4,5-c]pyridin-1-yl]thiophene-2-carboxamide], for which the pIC50 was more than 8.00. The same measure for `C[C@@H](Oc1cc(-n2cnc3cnc(CN4CCN(CCC#N)CC4)cc32)sc1C(N)=O)c1ccccc1C(F)(F)F` [Example 82, 5-(6-{[4-(2-cyanoethyl)piperazin-1-yl]methyl}-1H-imidazo[4,5-c]pyridin-1-yl)-3-{(1R)-1-[2-(trifluoromethyl)phenyl]ethoxy}thiophene-2-carboxamide]: 7.00 to 8.00; for `Cc1ccccc1C(C)Oc1cc(-n2cnc3cnc(CN4CCN(C)CC4)cc32)sc1C(N)=O` (stereo not drawn) [Example 148, 3-[1-(2-methylphenyl)ethoxy]-5-{6-[(4-methylpiperazin-1-yl)methyl]-1H-imidazo[4,5-c]pyridin-1-yl}thiophene-2-carboxamide]: more than 8.00. With `CC(Oc1cc(-n2cnc3cc(CN4CCOCC4)ncc32)sc1C(N)=O)c1ccccc1F` (stereo not drawn) [Example 158, 3-[-1-(2-fluorophenyl)ethoxy]-5-[6-(morpholin-4-ylmethyl)-3H-imidazo[4,5-c]pyridin-3-yl]thiophene-2-carboxamide], the pIC50 was 5.00 to 6.00. The figure for `C[C@@H](Oc1cc(-n2cnc3cnc(CN4CCN(C)CC4)cc32)sc1C(N)=O)c1ccccc1C(F)(F)F` [Example 24, 5-{6-[(4-methylpiperazin-1-yl)methyl]-1H-imidazo[4,5-c]pyridin-1-yl}-3-{(1R)-1-[2-(trifluoromethyl)phenyl]ethoxy}thiophene-2-carboxamide] is more than 8.00. The figure for `COc1cc2ncn(-c3cc(OCc4ccccc4C(F)(F)F)c(C(N)=O)s3)c2nc1OC` [Example 21B, 5-(5,6-Dimethoxy-3H-imidazo[4,5-b]pyridin-3-yl)-3-{[2-(trifluoromethyl)benzyl]oxy}thiophene-2-carboxamide] is 7.00 to 8.00. The figure for `NC(=O)c1sc(-n2cnc3cnccc32)cc1OCc1ccccc1OC(F)(F)F` [Example 33, 5-(1H-imidazo[4,5-c]pyridin-1-yl)-3-{[2-(trifluoromethoxy)benzyl]oxy}thiophene-2-carboxamide] is 7.00 to 8.00; for `C[C@@H](Oc1cc(-n2cnc3cnc(CO)cc32)sc1C(N)=O)c1ccccc1Br` [Example 52, 3-[(1R)-1-(2-bromophenyl)ethoxy]-5-[6-(hydroxymethyl)-1H-imidazo[4,5-c]pyridin-1-yl]thiophene-2-carboxamide] it is more than 8.00; for `C[C@@H](Oc1cc(-n2cnc3cnc(CN4CC(O)C4)cc32)sc1C(N)=O)c1ccccc1C(F)(F)F` [Example 96, 5-{6-[(3-hydroxyazetidin-1-yl)methyl]-1H-imidazo[4,5-c]pyridin-1-yl}-3-{(1R)-1-[2-(trifluoromethyl)phenyl]ethoxy}thiophene-2-carboxamide] it is more than 8.00. For `CC1CN(Cc2cc3c(cn2)ncn3-c2cc(O[C@H](C)c3ccccc3C(F)(F)F)c(C(N)=O)s2)CCN1C` (stereo partly drawn) [Example 74, 5-{6-[(3,4-dimethylpiperazin-1-yl)methyl]-1H-imidazo[4,5-c]pyridin-1-yl}-3-{(1R)-1-[2-(trifluoromethyl)phenyl]ethoxy}thiophene-2-carboxamide], the pIC50 is more than 8.00. On to `CCOc1ccc(OCC)c(COc2cc(-n3cnc4cnc(CO)cc43)sc2C(N)=O)c1` [Example 109, 3-[(2,5-diethoxybenzyl)oxy]-5-[6-(hydroxymethyl)-1H-imidazo[4,5-c]pyridin-1-yl]thiophene-2-carboxamide], for which the pIC50 is 5.00 to 6.00. Take `C[C@@H](Oc1cc(-n2cnc3cnc(CN4CCCN(C)CC4)cc32)sc1C(N)=O)c1ccccc1Cl` [Example 129, 3-[(1R)-1-(2-chlorophenyl)ethoxy]-5-{6-[(4-methyl-1,4-diazepan-1-yl)methyl]-1H-imidazo[4,5-c]pyridin-1-yl}thiophene-2-carboxamide]: the pIC50 was more than 8.00.
